{"source": "paper PMC9276671", "about": "“A first-in-human Phase I dose-escalation trial of the novel therapeutic peptide, ALM201, demonstrates a favourable safety profile in unselected patients with ovarian cancer and other advanced solid tumours” (British Journal of Cancer, 2022)", "test": "Plasma pharmacokinetics of ALM201 in Phase I patients (validated LC-MS/MS, Phoenix WinNonlin)", "details": "for Tmax: median, plasma LC-MS/MS; for Half-life: SC, day 1 cycle 1", "note": "No end group written: not given here."}
{"sequence": "IRQQPRDPPTETLELEVSPDPAS [ALM201]", "values": [{"measurement": "level at 2 h", "setting": "human, plasma, sc, 300 mg, Plasma concentration, geometric mean (CV%), 300 mg SC, day 1 cycle 1, 2 h after dosing, n = 3, LC-MS/MS", "value": 2310, "unit": "ng/mL"}, {"measurement": "level at 3 h", "setting": "human, plasma, sc, 300 mg, Plasma concentration, geometric mean (CV%), 300 mg SC, day 1 cycle 1, 3 h after dosing, n = 3, LC-MS/MS", "value": 2120, "unit": "ng/mL"}, {"measurement": "level at 4 h", "setting": "human, plasma, sc, 300 mg, Plasma concentration, geometric mean (CV%), 300 mg SC, day 1 cycle 1, 4 h after dosing, n = 3, LC-MS/MS", "value": 1600, "unit": "ng/mL"}, {"measurement": "level at 5 h", "setting": "human, plasma, sc, 300 mg, Plasma concentration, geometric mean (CV%), 300 mg SC, day 1 cycle 1, 5 h after dosing, n = 3, LC-MS/MS", "value": 1280, "unit": "ng/mL"}, {"measurement": "level at 6 h", "setting": "human, plasma, sc, 300 mg, Plasma concentration, geometric mean (CV%), 300 mg SC, day 1 cycle 1, 6 h after dosing, n = 3, LC-MS/MS", "value": 901, "unit": "ng/mL"}, {"measurement": "level at 7 h", "setting": "human, plasma, sc, 300 mg, Plasma concentration, geometric mean (CV%), 300 mg SC, day 1 cycle 1, 7 h after dosing, n = 3, LC-MS/MS", "value": 703, "unit": "ng/mL"}, {"measurement": "level at 8 h", "setting": "human, plasma, sc, 300 mg, Plasma concentration, geometric mean (CV%), 300 mg SC, day 1 cycle 1, 8 h after dosing, n = 3, LC-MS/MS", "value": 420, "unit": "ng/mL"}, {"measurement": "level at 0.5 h", "setting": "human, plasma, sc, 300 mg, Plasma concentration, geometric mean (CV%), 300 mg SC, day 3 cycle 1, 0.5 h after dosing, n = 3, LC-MS/MS", "value": 1970, "unit": "ng/mL"}, {"measurement": "level at 1 h", "setting": "human, plasma, sc, 300 mg, Plasma concentration, geometric mean (CV%), 300 mg SC, day 3 cycle 1, 1 h after dosing, n = 3, LC-MS/MS", "value": 2590, "unit": "ng/mL"}, {"measurement": "level at 1.5 h", "setting": "human, plasma, sc, 300 mg, Plasma concentration, geometric mean (CV%), 300 mg SC, day 3 cycle 1, 1.5 h after dosing, n = 2 values (CV NC), LC-MS/MS", "value": 1950, "unit": "ng/mL"}, {"measurement": "level at 2 h", "setting": "human, plasma, sc, 300 mg, Plasma concentration, geometric mean (CV%), 300 mg SC, day 3 cycle 1, 2 h after dosing, n = 2 values (CV NC), LC-MS/MS", "value": 2450, "unit": "ng/mL"}, {"measurement": "level at 4.5 h", "setting": "human, plasma, sc, 300 mg, Plasma concentration, geometric mean (CV%), 300 mg SC, day 3 cycle 1, 4.5 h after dosing, n = 3, LC-MS/MS", "value": 1740, "unit": "ng/mL"}, {"measurement": "level at 7 h", "setting": "human, plasma, sc, 300 mg, Plasma concentration, geometric mean (CV%), 300 mg SC, day 3 cycle 1, 7 h after dosing, n = 3, LC-MS/MS", "value": 852, "unit": "ng/mL"}, {"measurement": "level at 0.5 h", "setting": "human, plasma, sc, 300 mg, Plasma concentration, geometric mean (CV%), 300 mg SC, day 18 cycle 1, 0.5 h after dosing, n = 3, LC-MS/MS", "value": 2290, "unit": "ng/mL"}, {"measurement": "level at 1 h", "setting": "human, plasma, sc, 300 mg, Plasma concentration, geometric mean (CV%), 300 mg SC, day 18 cycle 1, 1 h after dosing, n = 3, LC-MS/MS", "value": 2410, "unit": "ng/mL"}, {"measurement": "level at 1.5 h", "setting": "human, plasma, sc, 300 mg, Plasma concentration, geometric mean (CV%), 300 mg SC, day 18 cycle 1, 1.5 h after dosing, n = 3, LC-MS/MS", "value": 2600, "unit": "ng/mL"}, {"measurement": "level at 2 h", "setting": "human, plasma, sc, 300 mg, Plasma concentration, geometric mean (CV%), 300 mg SC, day 18 cycle 1, 2 h after dosing, n = 3, LC-MS/MS", "value": 2520, "unit": "ng/mL"}, {"measurement": "level at 4.5 h", "setting": "human, plasma, sc, 300 mg, Plasma concentration, geometric mean (CV%), 300 mg SC, day 18 cycle 1, 4.5 h after dosing, n = 3, LC-MS/MS", "value": 1370, "unit": "ng/mL"}, {"measurement": "level at 7 h", "setting": "human, plasma, sc, 300 mg, Plasma concentration, geometric mean (CV%), 300 mg SC, day 18 cycle 1, 7 h after dosing, n = 3, LC-MS/MS", "value": 767, "unit": "ng/mL"}, {"measurement": "level at 0.5 h", "setting": "human, plasma, sc, 300 mg, Plasma concentration, geometric mean (CV%), 300 mg SC, day 18 cycle 2, 0.5 h after dosing, n = 3, LC-MS/MS", "value": 1990, "unit": "ng/mL"}, {"measurement": "level at 1 h", "setting": "human, plasma, sc, 300 mg, Plasma concentration, geometric mean (CV%), 300 mg SC, day 18 cycle 2, 1 h after dosing, n = 3, LC-MS/MS", "value": 2280, "unit": "ng/mL"}, {"measurement": "level at 1.5 h", "setting": "human, plasma, sc, 300 mg, Plasma concentration, geometric mean (CV%), 300 mg SC, day 18 cycle 2, 1.5 h after dosing, n = 3, LC-MS/MS", "value": 2380, "unit": "ng/mL"}, {"measurement": "level at 2 h", "setting": "human, plasma, sc, 300 mg, Plasma concentration, geometric mean (CV%), 300 mg SC, day 18 cycle 2, 2 h after dosing, n = 3, LC-MS/MS", "value": 2540, "unit": "ng/mL"}, {"measurement": "level at 4.5 h", "setting": "human, plasma, sc, 300 mg, Plasma concentration, geometric mean (CV%), 300 mg SC, day 18 cycle 2, samples collected at 4.5 hours, n = 3, LC-MS/MS", "value": 720, "unit": "ng/mL"}, {"measurement": "level at 7 h", "setting": "human, plasma, sc, 300 mg, Plasma concentration, geometric mean (CV%), 300 mg SC, day 18 cycle 2, samples collected at 7.0 hours, n = 3, LC-MS/MS", "value": 485, "unit": "ng/mL"}, {"measurement": "level at 0.5 h", "setting": "human, plasma, sc, 300 mg, Plasma concentration, geometric mean (CV%), 300 mg SC, day 18 cycle 4, 0.5 h after dosing, n = 1, LC-MS/MS", "value": 1670, "unit": "ng/mL"}, {"measurement": "level at 1 h", "setting": "human, plasma, sc, 300 mg, Plasma concentration, geometric mean (CV%), 300 mg SC, day 18 cycle 4, 1 h after dosing, n = 1, LC-MS/MS", "value": 2140, "unit": "ng/mL"}, {"measurement": "level at 1.5 h", "setting": "human, plasma, sc, 300 mg, Plasma concentration, geometric mean (CV%), 300 mg SC, day 18 cycle 4, 1.5 h after dosing, n = 1, LC-MS/MS", "value": 1990, "unit": "ng/mL"}, {"measurement": "level at 2 h", "setting": "human, plasma, sc, 300 mg, Plasma concentration, geometric mean (CV%), 300 mg SC, day 18 cycle 4, 2 h after dosing, n = 1, LC-MS/MS", "value": 1990, "unit": "ng/mL"}, {"measurement": "level at 4.5 h", "setting": "human, plasma, sc, 300 mg, Plasma concentration, geometric mean (CV%), 300 mg SC, day 18 cycle 4, sample collected at 4.5 hours, n = 1, LC-MS/MS", "value": 854, "unit": "ng/mL"}, {"measurement": "level at 7 h", "setting": "human, plasma, sc, 300 mg, Plasma concentration, geometric mean (CV%), 300 mg SC, day 18 cycle 4, sample collected at 7.0 hours, n = 1, LC-MS/MS", "value": 387, "unit": "ng/mL"}, {"measurement": "level at 0.5 h", "setting": "human, plasma, sc, 300 mg, Plasma concentration, geometric mean (CV%), 300 mg SC, day 18 cycle 6, 0.5 h after dosing, n = 1, LC-MS/MS", "value": 3150, "unit": "ng/mL"}, {"measurement": "level at 1 h", "setting": "human, plasma, sc, 300 mg, Plasma concentration, geometric mean (CV%), 300 mg SC, day 18 cycle 6, 1 h after dosing, n = 1, LC-MS/MS", "value": 4430, "unit": "ng/mL"}, {"measurement": "level at 1.5 h", "setting": "human, plasma, sc, 300 mg, Plasma concentration, geometric mean (CV%), 300 mg SC, day 18 cycle 6, 1.5 h after dosing, n = 1, LC-MS/MS", "value": 5240, "unit": "ng/mL"}, {"measurement": "level at 2 h", "setting": "human, plasma, sc, 300 mg, Plasma concentration, geometric mean (CV%), 300 mg SC, day 18 cycle 6, 2 h after dosing, n = 1, LC-MS/MS", "value": 6830, "unit": "ng/mL"}, {"measurement": "level at 4.5 h", "setting": "human, plasma, sc, 300 mg, Plasma concentration, geometric mean (CV%), 300 mg SC, day 18 cycle 6, sample collected at 4.5 hours, n = 1, LC-MS/MS", "value": 3600, "unit": "ng/mL"}, {"measurement": "level at 7 h", "setting": "human, plasma, sc, 300 mg, Plasma concentration, geometric mean (CV%), 300 mg SC, day 18 cycle 6, sample collected at 7.0 hours, n = 1, LC-MS/MS", "value": 693, "unit": "ng/mL"}, {"measurement": "Tmax", "setting": "human, plasma, sc, 300 mg, 300 mg SC, day 1 cycle 1, n = 3", "value": 2, "unit": "h"}, {"measurement": "Tmax", "setting": "human, plasma, sc, 300 mg, 300 mg SC, day 3 cycle 1, n = 3", "value": 1.02, "unit": "h"}, {"measurement": "Tmax", "setting": "human, plasma, sc, 300 mg, 300 mg SC, day 18 cycle 1, n = 3", "value": 1.5, "unit": "h"}, {"measurement": "Tmax", "setting": "human, plasma, sc, 300 mg, 300 mg SC, day 18 cycle 4, n = 1", "value": 1.12, "unit": "h"}, {"measurement": "Tmax", "setting": "human, plasma, sc, 300 mg, 300 mg SC, day 18 cycle 6, n = 1", "value": 2.02, "unit": "h"}, {"measurement": "Half-life", "setting": "patient 02.002, 80 mg cohort", "value": 1.80, "unit": "h"}, {"measurement": "Half-life", "setting": "patient 02.003, 160 mg cohort", "value": 1.50, "unit": "h"}, {"measurement": "Half-life", "setting": "patient 03.005, 160 mg cohort", "value": 0.90, "unit": "h"}]}
